Biological target: Cytochrome P450 3A4 (Homo sapiens, UniProt P08684)
Sequence (P08684 whole entry): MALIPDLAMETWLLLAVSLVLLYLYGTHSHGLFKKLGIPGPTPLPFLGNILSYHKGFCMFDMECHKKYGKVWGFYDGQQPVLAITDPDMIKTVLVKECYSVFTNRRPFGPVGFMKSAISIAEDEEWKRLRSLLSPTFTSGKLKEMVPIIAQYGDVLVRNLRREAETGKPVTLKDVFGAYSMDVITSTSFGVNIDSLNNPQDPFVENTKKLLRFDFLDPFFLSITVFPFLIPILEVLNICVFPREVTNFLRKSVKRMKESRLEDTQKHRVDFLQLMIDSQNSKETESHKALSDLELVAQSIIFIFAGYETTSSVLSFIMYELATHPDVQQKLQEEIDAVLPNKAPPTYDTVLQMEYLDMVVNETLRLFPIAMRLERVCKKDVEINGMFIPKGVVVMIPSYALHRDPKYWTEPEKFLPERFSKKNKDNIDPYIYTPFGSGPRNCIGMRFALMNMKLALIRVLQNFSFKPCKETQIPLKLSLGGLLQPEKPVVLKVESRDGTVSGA

SMILES: CC(C)C[C@H]1C(=O)N2CCC[C@H]2[C@]2(O)O[C@](NC(=O)[C@@H]3C=C4c5cccc6[nH]cc(c56)C[C@H]4N(C)C3)(C(C)C)C(=O)N12 [ERGOCRYPTINE]
- IC50: 600 nM

Source: ChEMBL document CHEMBL1909046, “DrugMatrix in vitro pharmacology data”
